Source: US12129246B1, “Hydroquinazoline derivatives for the treatment of a disease or disorder” (Novartis AG, priority 2023, dated 2024)
Like-named read-outs stand apart in the source and are kept apart here.

Key:
[1] = biological target: T1, human NPR1 (Homo sapiens, UniProt P16066); assay: Cellular cGMP production assay, human NPR1 expressing CHO-K1 cells (CisBio HTRF); type: cell-based; settings: for AC50: cGMP production, 30 min at 37° C., 12-point dose-response from 30 μM; for Human NPR1 Amax (% of ANP): maximum cGMP production as percentage of the maximum cGMP produced with ANP
T1 construct: host or cells: CHO-K1
T1 sequence (P16066 33-1061): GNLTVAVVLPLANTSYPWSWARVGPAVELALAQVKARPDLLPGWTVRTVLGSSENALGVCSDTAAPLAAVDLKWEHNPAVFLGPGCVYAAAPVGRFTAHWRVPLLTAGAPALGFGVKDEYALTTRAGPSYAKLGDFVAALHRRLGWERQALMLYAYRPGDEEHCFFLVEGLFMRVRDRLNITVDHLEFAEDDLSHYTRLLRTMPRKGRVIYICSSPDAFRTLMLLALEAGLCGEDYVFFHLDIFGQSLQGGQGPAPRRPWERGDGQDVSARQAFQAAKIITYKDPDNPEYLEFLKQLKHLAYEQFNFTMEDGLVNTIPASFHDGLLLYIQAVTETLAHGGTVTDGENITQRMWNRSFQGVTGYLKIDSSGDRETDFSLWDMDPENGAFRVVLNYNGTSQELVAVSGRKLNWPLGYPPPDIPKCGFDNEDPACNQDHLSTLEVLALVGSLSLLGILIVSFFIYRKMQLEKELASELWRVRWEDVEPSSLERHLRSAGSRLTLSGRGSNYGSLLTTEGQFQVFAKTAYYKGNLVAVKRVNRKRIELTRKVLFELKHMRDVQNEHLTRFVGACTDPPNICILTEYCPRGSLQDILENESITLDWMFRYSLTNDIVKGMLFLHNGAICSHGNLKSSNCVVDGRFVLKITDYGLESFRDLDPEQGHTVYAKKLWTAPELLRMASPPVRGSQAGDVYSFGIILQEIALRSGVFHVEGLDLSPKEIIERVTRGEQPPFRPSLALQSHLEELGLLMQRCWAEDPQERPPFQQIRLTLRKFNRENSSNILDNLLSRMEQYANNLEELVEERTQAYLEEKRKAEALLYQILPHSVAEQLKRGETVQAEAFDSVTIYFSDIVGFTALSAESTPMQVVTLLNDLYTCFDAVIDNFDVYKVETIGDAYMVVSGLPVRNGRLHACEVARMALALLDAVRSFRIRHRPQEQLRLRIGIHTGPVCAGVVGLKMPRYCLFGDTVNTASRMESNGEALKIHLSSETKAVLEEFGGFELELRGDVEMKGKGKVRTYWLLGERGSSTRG
Outline: (§1)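 12-pt 3-fold dose-response, top 30 μM; buffer PBS + 0.1% BSA + 1 mM IBMX (PDE inhibitor); 30 min, 37 °C. Lyse, add cGMP-d2 + anti-cGMP-cryptate, 1 h RT. Ex 317 / em 665 nm; Delta F converted to cGMP via calibrator standard curve.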

[2] = biological target: monkey NPR1 (Macaca fascicularis, UniProt A0A7N9DBT9); assay: Cellular cGMP production assay, monkey NPR1 expressing CHO-K1 cells (CisBio HTRF); type: cell-based; settings: for Monkey NPR1 Amax (% of ANP): maximum cGMP production as percentage of the maximum cGMP produced with ANP
Outline: as §1

[3] = cGMP production, monkey NPR1 CHO-K1 cells, 30 min at 37° C., 12-point dose-response from 30 μM, read-out: Monkey NPR1 AC50

monkey NPR1, sequence (A0A7N9DBT9 entry or part of it): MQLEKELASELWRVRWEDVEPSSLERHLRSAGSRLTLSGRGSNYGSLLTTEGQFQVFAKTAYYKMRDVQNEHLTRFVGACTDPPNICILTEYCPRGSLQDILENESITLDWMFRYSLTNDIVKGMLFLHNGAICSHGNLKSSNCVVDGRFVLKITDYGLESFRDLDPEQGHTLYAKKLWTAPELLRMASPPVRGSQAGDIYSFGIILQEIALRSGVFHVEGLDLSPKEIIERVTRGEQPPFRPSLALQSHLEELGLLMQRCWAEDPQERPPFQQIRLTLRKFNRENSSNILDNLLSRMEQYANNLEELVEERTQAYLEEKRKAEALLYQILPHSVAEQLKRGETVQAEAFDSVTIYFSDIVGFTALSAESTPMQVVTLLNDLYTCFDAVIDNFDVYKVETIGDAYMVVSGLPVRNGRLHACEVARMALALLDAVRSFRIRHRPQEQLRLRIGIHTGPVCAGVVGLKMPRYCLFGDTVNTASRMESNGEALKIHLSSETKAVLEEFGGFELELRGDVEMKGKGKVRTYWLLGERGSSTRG

Row | SMILES | AC50 [1] | Human NPR1 Amax (% of ANP) [1] | AC50 [2, 3] | Monkey NPR1 Amax (% of ANP) ([2]; monkey NPR1 CHO-K1 cells) | AC50 [2]
1 | CC[C@H]([C@H]1CC[C@H](C(=O)O)CC1)N(C)c1nc2c(c(N[C@@H](CN3CCCCC3)c3cnn(CC)c3)n1)C[C@H](c1cccc(F)c1)CC2 [Compound 91, (1R,4r)-4-((R)-1-(((R)-4-(((R)-1-(1-ethyl-1H-pyrazol-4-yl)-2-(piperidin-1-yl)ethyl)amino)-6-(3-fluorophenyl)-5,6,7,8-tetrahydroquinazolin-2-yl)(methyl)amino)propyl)cyclohexane-1-carboxylic acid] | 315 nM | 98.135 % of ANP | 184 nM | 102.129 % of ANP | 
2 | CC[C@H]([C@H]1CC[C@H](C(=O)O)CC1)N(C)c1nc2c(c(N[C@@H](CN3C4CCCC3CCC4)c3cnn(CC)c3)n1)C[C@H](c1ccccc1)CC2 [Compound 92, (1R,4r)-4-((R)-1-(((R)-4-(((R)-2-((1S,5S)-9-azabicyclo[3.3.1]nonan-9-yl)-1-(1-ethyl-1H-pyrazol-4-yl)ethyl)amino)-6-phenyl-5,6,7,8-tetrahydroquinazolin-2-yl)(methyl)amino)propyl)cyclohexane-1-carboxylic acid] | 317 nM | 99.678 % of ANP |  | 99.824 % of ANP | 249 nM
3 | CC[C@H]([C@H]1CC[C@H](C(=O)O)CC1)N(C)c1nc2c(c(N[C@@H](CN3CCC[C@H](CO)C3)c3cnn(C)c3)n1)C[C@H](c1ccccc1)CC2 [Compound 93, (1R,4r)-4-((R)-1-(((R)-4-(((R)-2-((S)-3-(hydroxymethyl)piperidin-1-yl)-1-(1-methyl-1H-pyrazol-4-yl)ethyl)amino)-6-phenyl-5,6,7,8-tetrahydroquinazolin-2-yl)(methyl)amino)propyl)cyclohexane-1-carboxylic acid] | 318 nM | 92.058 % of ANP | 261 nM | 91.105 % of ANP | 
4 | CC[C@@H](Nc1nc2c(c(N[C@@H](CN3CCCCCC3)c3cnn(CC)c3)n1)C[C@H](c1ccccc1)CC2)[C@H]1CC[C@H](C(=O)O)CC1 [Compound 94, (1R,4r)-4-((R)-1-(((R)-4-(((R)-2-(azepan-1-yl)-1-(1-ethyl-1H-pyrazol-4-yl)ethyl)amino)-6-phenyl-5,6,7,8-tetrahydroquinazolin-2-yl)amino)propyl)cyclohexane-1-carboxylic acid] | 326 nM | 101.620 % of ANP | 226 nM | 105.567 % of ANP | 
5 | CC[C@@H](Nc1nc2c(c(N[C@@H](CN3CCCC(C)(C)C3)c3cnn(C)c3)n1)C[C@H](c1ccccc1)CC2)[C@H]1CC[C@H](C(=O)O)CC1 [Compound 95, (1R,4r)-4-((R)-1-(((R)-4-(((R)-2-(3,3-dimethylpiperidin-1-yl)-1-(1-methyl-1H-pyrazol-4-yl)ethyl)amino)-6-phenyl-5,6,7,8-tetrahydroquinazolin-2-yl)amino)propyl)cyclohexane-1-carboxylic acid] | 334 nM | 97.121 % of ANP | 173 nM | 94.323 % of ANP | 
6 | CC[C@@H]1CCCCN1C[C@H](Nc1nc(N[C@H](CC)[C@H]2CC[C@H](C(=O)O)CC2)nc2c1C[C@H](c1ccccc1)CC2)c1cnn(C)c1 [Compound 96, (1R,4r)-4-((R)-1-(((R)-4-(((R)-2-((R)-2-ethylpiperidin-1-yl)-1-(1-methyl-1H-pyrazol-4-yl)ethyl)amino)-6-phenyl-5,6,7,8-tetrahydroquinazolin-2-yl)amino)propyl)cyclohexane-1-carboxylic acid] | 336 nM | 103.654 % of ANP | 106 nM | 101.912 % of ANP | 
7 | CC[C@H]([C@H]1CC[C@H](C(=O)O)CC1)N(C)c1nc2c(c(N[C@@H](CN3CCCCC3)c3cnn(C4CC4)c3)n1)C[C@H](c1ccccc1)CC2 [Compound 97, (1R,4r)-4-((R)-1-(((R)-4-(((R)-1-(1-cyclopropyl-1H-pyrazol-4-yl)-2-(piperidin-1-yl)ethyl)amino)-6-phenyl-5,6,7,8-tetrahydroquinazolin-2-yl)(methyl)amino)propyl)cyclohexane-1-carboxylic acid] | 338 nM | 107.286 % of ANP | 192 nM | 96.148 % of ANP | 
8 | CC[C@H]([C@H]1CC[C@H](C(=O)O)CC1)N(C)c1nc2c(c(N[C@@H](CN3C4CC5CC(C4)CC3C5)c3cnn(C)c3)n1)C[C@H](c1ccccc1)CC2 [Compound 98, (1R,4r)-4-((R)-1-(((R)-4-(((R)-2-((1R,3R,5R,7R)-2-azaadamantan-2-yl)-1-(1-methyl-1H-pyrazol-4-yl)ethyl)amino)-6-phenyl-5,6,7,8-tetrahydroquinazolin-2-yl)(methyl)amino)propyl)cyclohexane-1-carboxylic acid] | 346 nM | 100.756 % of ANP | 179 nM | 105.533 % of ANP | 
9 | CC[C@@H](Nc1nc2c(c(N[C@@H](CN3CCCC3)c3ccccc3)n1)CN(c1cccc(F)c1)CC2)[C@H]1CC[C@H](C(=O)O)CC1 [Compound 99, (1R,4r)-4-((R)-1-((6-(3-fluorophenyl)-4-(((R)-1-phenyl-2-(pyrrolidin-1-yl)ethyl)amino)-5,6,7,8-tetrahydropyrido[4,3-d]pyrimidin-2-yl)amino)propyl)cyclohexane-1-carboxylic acid] | 351 nM | 102.315 % of ANP | 256 nM | 94.886 % of ANP | 
10 | CC[C@@H](Nc1nc2c(c(N[C@@H](CN3CCCCC3)c3cnn(C(C)C)c3)n1)C[C@H](c1ccccc1)CC2)[C@H]1CC[C@H](C(=O)O)CC1 [Compound 100, (1R,4r)-4-((R)-1-(((R)-4-(((R)-1-(1-isopropyl-1H-pyrazol-4-yl)-2-(piperidin-1-yl)ethyl)amino)-6-phenyl-5,6,7,8-tetrahydroquinazolin-2-yl)amino)propyl)cyclohexane-1-carboxylic acid] | 354 nM | 92.848 % of ANP | 161 nM | 105.588 % of ANP | 
11 | CC[C@H]([C@H]1CC[C@H](C(=O)O)CC1)N(C)c1nc2c(c(N[C@@H](CN3CCC[C@H](C)C3)c3cnn(C)c3)n1)C[C@@H](c1ccccc1)CC2 [Compound 101, (1R,4r)-4-((R)-1-(methyl((S)-4-(((R)-1-(1-methyl-1H-pyrazol-4-yl)-2-((S)-3-methylpiperidin-1-yl)ethyl)amino)-6-phenyl-5,6,7,8-tetrahydroquinazolin-2-yl)amino)propyl)cyclohexane-1-carboxylic acid] | 377 nM | 93.777 % of ANP | 335 nM | 101.476 % of ANP | 
12 | CC[C@H]([C@H]1CC[C@H](C(=O)O)CC1)N(C)c1nc2c(c(N[C@@H](CN3C4CCCC3CC4)c3cn(C)nc3C)n1)C[C@H](c1cccc(F)c1)CC2 [Compound 102, (1R,4r)-4-((1R)-1-(((6R)-4-(((1R)-2-(8-azabicyclo[3.2.1]octan-8-yl)-1-(1,3-dimethyl-1H-pyrazol-4-yl)ethyl)amino)-6-(3-fluorophenyl)-5,6,7,8-tetrahydroquinazolin-2-yl)(methyl)amino)propyl)cyclohexane-1-carboxylic acid] | 382 nM | 96.769 % of ANP |  | 107.819 % of ANP | 279 nM
13 | CC[C@H]([C@H]1CC[C@H](C(=O)O)CC1)N(C)c1nc2c(c(N[C@@H](CN3C4CCCC3CC4)c3cnn(C)c3)n1)C[C@H](c1ccccc1)CC2 [Compound 103, (1R,4r)-4-((1R)-1-(((6R)-4-(((1R)-2-(8-azabicyclo[3.2.1]octan-8-yl)-1-(1-methyl-1H-pyrazol-4-yl)ethyl)amino)-6-phenyl-5,6,7,8-tetrahydroquinazolin-2-yl)(methyl)amino)propyl)cyclohexane-1-carboxylic acid] | 393 nM | 101.239 % of ANP |  | 106.030 % of ANP | 350 nM
